From patent US20010051374A1, “HIGH […] MO[…]” (priority 1997, published 2001)

System: 293 cells
Test: Coamatic Factor VIII assay of supernatants of 293 cells infected with rAAV
Format: cell-based, human
Design: dose or concentration left out as unconfirmed
Settings: etoposide added to medium of cells co-infected with rAAV-80L and rAAV-90H
Description: The heavy and light chain constructs, pKm201-80L and pKm201-90H, were packaged following standard procedures for the production of rAAV (Zhou et al. (1994) J. Exp. Med. 179:1867-1875). rAAV was purified as described (Wang et al. (1995) Proc. Natl. Acad. Sci. USA 92:12416-12420) and used to infect 293 cells plated in 6-well plates. Supernatants of infected cells were collected 48 h after infection and assayed for biologically active factor VIII by Coamatic Factor VIII (KabiVitrum, Stockholm), following the manufacturer's instructions. Normal human plasma (George King Bio-Medical, Inc., Overland Park, Kans.) was used to generate a standard curve. Cells were infected at a multiplicity of infection (MOI) of 6000 rAAV particles per cell. The experiment was done both with and without the addition of etoposide ([…]) to the medium. […] The amount of factor VIII was increased in the presence of etoposide.

COc1cc([C@@H]2c3cc4c(cc3[C@@H](O[C@@H]3O[C@@H]5CO[C@@H](C)O[C@H]5[C@H](O)[C@H]3O)[C@H]3COC(=O)[C@H]23)OCO4)cc(OC)c1O [etoposide]
amount of factor VIII: increased
